Source: US20170190671A1, “BIS(ARYL)CATECHOL DERIVATIVES AS HERBICIDES” (E I DU PONT DE NEMOURS AND COMPANY, priority 2014, published 2017)

What was measured:
Test in all cases: Test E preemergence
Type in all cases: in vivo
Conditions in all cases: scale 0 to 100
[1] = test system: yellow nutsedge (Cyperus esculentus)
Summary of the method: (§1)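 Visual ratings from 0 = no effect to 100 = complete control, scored against untreated controls after 14 to 21 days in the greenhouse. Compounds, in a non-phytotoxic solvent mix with surfactant, went onto silt loam soil right after sowing (preemergence) or onto 2–18 cm plants at the 1- to 4-leaf stage (postemergence).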

corn (Zea mays) = test system: corn (Zea mays)
Summary of the method: as §1

[2] = test system: morningglory (Ipomoea coccinea)
Summary of the method: as §1

[3] = test system: barnyardgrass (Echinochloa crus-galli)
Summary of the method: as §1

[4] = test system: arrowleaf sida (Sida rhombifolia)
Summary of the method: as §1

[5] = test system: sandbur (southern sandbur, Cenchrus echinatus)
Summary of the method: as §1

[6] = test system: lambsquarters (Chenopodium album)
Summary of the method: as §1

[7] = test system: velvetleaf (Abutilon theophrasti)
Summary of the method: as §1

[8] = test system: field bindweed (Convolvulus arvensis)
Summary of the method: as §1

[9] = test system: green foxtail (Setaria viridis)
Summary of the method: as §1

soybean (Glycine max) = test system: soybean (Glycine max)
Summary of the method: as §1

[10] = test system: ragweed (common ragweed, Ambrosia elatior)
Summary of the method: as §1

[11] = test system: waterhemp (common waterhemp, Amaranthus rudis)
Summary of the method: as §1

[12] = test system: palmer pigweed (Amaranthus palmeri)
Summary of the method: as §1

[13] = test system: hairy beggarticks (Bidens pilosa)
Summary of the method: as §1

[14] = test system: goosegrass (Eleusine indica)
Summary of the method: as §1

[15] = test system: large (Lg) crabgrass (Digitaria sanguinalis)
Summary of the method: as §1

[16] = test system: nightshade (eastern black nightshade, Solanum ptycanthum)
Summary of the method: as §1

[17] = test system: Surinam grass (Brachiaria decumbens)
Summary of the method: as §1

[18] = test system: dayflower (Virginia (VA) dayflower, Commelina virginica)
Summary of the method: as §1

[19] = test system: giant foxtail (Setaria faberii)
Summary of the method: as §1

Q: `Fc1cccc(Oc2ncc(Cl)cn2)c1Oc1ncc(C(F)(F)F)cn1` [Compound 43, 5-chloro-2-[5-fluoro-6-[[5-(trifluoromethyl)-2-pyrimidinyl]oxy]phenoxy]pyrimidine] was tested. Which “Plant response rating, Nutsedge, Yellow” value ([1]; 31 g ai/ha) did it give?
A: 0

Q: What about the “Plant response rating, Nutsedge, Yellow” value ([1]; 125 g ai/ha) of the same molecule?
A: 25

Q: What about the “Plant response rating, Corn” value (corn (Zea mays); 31 g ai/ha) of the same molecule?
A: 0

Q: And the “Plant response rating, Corn” value (corn (Zea mays); 125 g ai/ha)?
A: 50

Q: What about the “Plant response rating, Morningglory” value ([2]; 31 g ai/ha) of the same molecule?
A: 5

Q: And the “Plant response rating, Morningglory” value ([2]; 125 g ai/ha)?
A: 95

Q: What about the “Plant response rating, Barnyardgrass” value ([3]; 31 g ai/ha) of the same molecule?
A: 20

Q: What about the “Plant response rating, Barnyardgrass” value ([3]; 125 g ai/ha) of the same molecule?
A: 100

Q: And the “Plant response rating, Arrowleaf Sida” value ([4]; 31 g ai/ha)?
A: 100

Q: And the “Plant response rating, Arrowleaf Sida” value ([4]; 125 g ai/ha)?
A: 100

Q: And the “Plant response rating, Sandbur” value ([5]; 31 g ai/ha)?
A: 15

Q: What about the “Plant response rating, Sandbur” value ([5]; 125 g ai/ha) of the same molecule?
A: 100

Q: And the “Plant response rating, Lambsquarters” value ([6]; 31 g ai/ha)?
A: 95

Q: And the “Plant response rating, Lambsquarters” value ([6]; 125 g ai/ha)?
A: 100

Q: And the “Plant response rating, Velvetleaf” value ([7]; 31 g ai/ha)?
A: 70

Q: What about the “Plant response rating, Velvetleaf” value ([7]; 125 g ai/ha) of the same molecule?
A: 100

Q: And the “Plant response rating, Field Bindweed” value ([8]; 31 g ai/ha)?
A: 20

Q: And the “Plant response rating, Field Bindweed” value ([8]; 125 g ai/ha)?
A: 50

Q: And the “Plant response rating, Foxtail, Green” value ([9]; 31 g ai/ha)?
A: 70

Q: What about the “Plant response rating, Foxtail, Green” value ([9]; 125 g ai/ha) of the same molecule?
A: 100

Q: And the “Plant response rating, Soybean” value (soybean (Glycine max); 31 g ai/ha)?
A: 30

Q: And the “Plant response rating, Soybean” value (soybean (Glycine max); 125 g ai/ha)?
A: 65

Q: What about the “Plant response rating, Ragweed” value ([10]; 31 g ai/ha) of the same molecule?
A: 60

Q: And the “Plant response rating, Ragweed” value ([10]; 125 g ai/ha)?
A: 85

Q: And the “Plant response rating, Waterhemp” value ([11]; 31 g ai/ha)?
A: 90

Q: What about the “Plant response rating, Waterhemp” value ([11]; 125 g ai/ha) of the same molecule?
A: 100

Q: And the “Plant response rating, Pigweed, Palmer” value ([12]; 31 g ai/ha)?
A: 75

Q: And the “Plant response rating, Pigweed, Palmer” value ([12]; 125 g ai/ha)?
A: 90

Q: What about the “Plant response rating, Beggarticks” value ([13]; 31 g ai/ha) of the same molecule?
A: 0

Q: What about the “Plant response rating, Beggarticks” value ([13]; 125 g ai/ha) of the same molecule?
A: 0

Q: And the “Plant response rating, Goosegrass” value ([14]; 31 g ai/ha)?
A: 50

Q: What about the “Plant response rating, Goosegrass” value ([14]; 125 g ai/ha) of the same molecule?
A: 100

Q: And the “Plant response rating, Crabgrass, Large” value ([15]; 31 g ai/ha)?
A: 98

Q: And the “Plant response rating, Crabgrass, Large” value ([15]; 125 g ai/ha)?
A: 100

Q: And the “Plant response rating, Nightshade” value ([16]; 31 g ai/ha)?
A: 98

Q: What about the “Plant response rating, Nightshade” value ([16]; 125 g ai/ha) of the same molecule?
A: 100

Q: And the “Plant response rating, Surinam Grass” value ([17]; 31 g ai/ha)?
A: 25

Q: What about the “Plant response rating, Surinam Grass” value ([17]; 125 g ai/ha) of the same molecule?
A: 80

Q: And the “Plant response rating, Dayflower, VA” value ([18]; 31 g ai/ha)?
A: 25

Q: And the “Plant response rating, Dayflower, VA” value ([18]; 125 g ai/ha)?
A: 95

Q: And the “Plant response rating, Foxtail, Giant” value ([19]; 31 g ai/ha)?
A: 85

Q: What about the “Plant response rating, Foxtail, Giant” value ([19]; 125 g ai/ha) of the same molecule?
A: 100
